For this experiment, the system named is human malignant U373 glioma cells. Kind of experiment: Uptake/staining of cells by FITC-labelled conjugates (fluorescence microscopy, CLSM, FACS, semi-thin sections). The note with it: for strongly labeled (heavily stained) cells, FACS: 20 min incubation; for stained cells: 260 μM in PBS, 20 min (experiments with conjugates 9-15). The format is cell-based. The method, then:
Fluorescence was measured in a Becton Dickinson FACSCalibur. […] The investigations were performed in triplicate.
For CT and FACS human U373 glioma cells were grown under the same conditions in 75 cm^2 culture flasks (Corning Costar, Bodenheim, Germany) (70% confluency). Accutase™ (PAA laboratories, Pasching, Austria) was added to achieve detachment of the cells which were harvested and subsequently aliquoted into Eppendorf tubes (6×10^6 cells per tube). As in the investigations performed by fluorescence microscopy, the cells in the first tube served as a control (PBS only). The cells in the other tubes were incubated with 260 μM Ultravist, 260 μM TIBA in PBS and 26 μM, 260 μM and 2.6 mM conjugates 1-4 in PBS. After a 20 minute incubation period at 37° C. in an atmosphere of 5% CO2, the cells were washed three times in PBS and centrifuged at 800 rpm for 5 minutes.
The FACS analysis was performed as described under 1.4.
The human malignant U373 and LN18 glioma cells were cultivated in 75 cm^2 culture flasks (Corning Costar) (70% confluency) under the conditions as described under 1.4, detached from the flask bottom with Accutase™ (PAA Laboratories) and in the following distributed on Eppendorf tubes (Eppendorf, Hamburg, Germany) (6×10^6 per tube). The cells in the first tube serve as a control (only PBS buffer only). The cells in the other ten tubes were each incubated with benzoic acid (BA), monoiodobenzoic acid (MIBA) or diiodobenzoic acid (DIBA) alone (260 μM), conjugate 3 alone (260 μM), conjugate 3 plus either BA, MIBA or DIBA (260 μM), respectively, and the conjugates 9, 10, and 11 alone. (260 μM).
After an incubation of 20 minutes at 37° C./5% CO2 the cells were washed three times with PBS buffer and centrifuged at 800 rpm (rounds per minute) for 5 minutes. The fluorescence was measured in Becton Dickinson FACSCalibur as described under 1.4. The computer tomography was performed as described under 1.5.1. The examinations were repeated two times.
For the CT and FACS examinations human LN-18 and U373 glioma cells were cultivated in 75 cm^2 culture flasks (Corning Costar) (70% confluency) (conditions as described under 1.4). Accutase™ (PAA Laboratories) was added to detach the cells from the bottom of the culture flasks. The cells were collected and then distributed on Eppendorf tubes (6×10^6 cells per tube). The cells in the first two tubes serve as a control (in each case only PBS, LN18 and U373 glioma cells, native). The cells in the other tubes (in each case LN18 and U373 glioma cells) were incubated with a 260 μM or 2.6 mM solution of the conjugate 12 for 20 minutes at 37° C. and 5% CO2 and in the following washed for three times with PBS buffer and centrifuged for 5 minutes with 800 rpm (rounds per minute). For a small amount of the cells it was tested by the MMT test (see 1.4) how many of the cells were still viable. The computer tomography of the cell centrifuges was performed with the Somatom Sensation 16 (Siemens).
The FACS analysis was performed as described under 1.4. The assay was repeated two times.
For the CT and FACS examinations human LN18 and U373 glioma cells were cultivated in 75 cm^2 culture flasks (70% confluency) (conditions as described under section 1). Accutase™ (PAA Laboratories) was added to detach the cell from the culture bottom. The cells were collected and then distributed on Eppendorf-tubes (6×10^6 cells per tube). […] The next three tubes were used for the coincubation of the cells either with trichlorobenzoic acid (TCBA), trifluorobenzoic acid (TFBA) or tribromophenyl Isocyanat (TBPI) and the NLS-FITC-conjugate 3 (260 μM). As control cells were used which were only either incubated with CIBA, FIBA, TBPI (in each case 260 μM in PBS) or with PBS-buffer (native control) alone. […] The computer tomography and FACS analysis of the cell centrifuges were performed as described in 1.5.1 or 1.4, respectively for three times. […]

The values below come from patent publication US20090203877A1, “X-RAY-DENSE CONJUGATE” (Eberhard-Karls-Universitaet Tuebingen Universitaetsklinkum, priority 2006, published 2009).

Entries after “also recorded” stand apart in the source; their conditions may differ.

For “PKKKRKVK(FITC)GGK (FITC, GGK linker) [conjugate 3, FITC-labelled correct NLS of the SV 40 T antigen without TIBA]”, the stained cells stood at 8%. Further, the “strongly labeled (heavily stained) cells, FACS” value (“strongly labeled” for short) (26 μM) is 6%. Further, under “260 μM”, the “strongly labeled” value stood at 7%. Further, for the setting “2.6 mM”, the “strongly labeled” value was 10%. In addition, where the note is “conjugate co-incubated with free TIBA (260 μM)”, the “number of stained cells / cellular staining rate” value is on record as “not associated with a higher cellular staining rate; also recorded: did not result in any changes”.
Regarding “PKKKRKVK(FITC)GGK(BA) (FITC, GGK linker, benzoic acid) [conjugate 9, FITC-labelled NLS of the SV 40 T antigen with non-iodized benzoic acid]”, the stained cells is recorded as 8%.
On to “PKKKRKVK(FITC)GGK(TIBA) (FITC, GGK linker, TIBA) [conjugate 1, FITC-labelled correct NLS of the SV 40 T antigen with TIBA]”, for which the “strongly labeled” value reads like this: (26 μM) 32%; (260 μM) 32%; (2.6 mM) 93%. For the setting “260 μM”, the “staining of cell nuclei (CLSM overview)” value is recorded as “A very large number of cell nuclei has been stained”. The “staining of nucleoli in semi-thin sections (about 0.4 μm)” value (fluorescence microscopy after incubation) is given as “clearly stained”.
